The text below walks through data of patent US20120245137A1 (Zalicus Pharmaceuticals Ltd., priority 2009, published 2012).

What all share (format): cell-based
Experiment [1] has as its target Human Cav 2.2 channels (Homo sapiens, UniProt Q00975). Briefly: Fluorescent assay for CaV2.2 channels using potassium depolarization (VIPR/FLIPR). To be noted: FLIPR data. The method, boiled down: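 HEK293 cells stably expressing human Cav2.2 with α2δ and β subunits plus Kir2.3 were loaded with fluo-4 and incubated 30 min at 25 °C with compound in 4, 12, 25 or 30 mM potassium buffer. Channels were opened with 70 mM potassium (final) and calcium influx was read by fluorescence (Ex 480/Em 535 nm).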

The target in experiment [2] is T-type calcium channel (Homo sapiens, UniProt O43497). Briefly: T-type channel blocking, FLIPR data (Table 6). To be noted: CAv3.1. The text has this: (§1) Another method, high-throughput spectrophotometric assay, utilizes loading of the cell lines with a fluorescent dye sensitive to intracellular calcium concentration and subsequent examination of the effects of compounds on the ability of depolarization by potassium chloride or other means to alter intracellular calcium levels.

The target in experiment [3] is T-type calcium channel (Homo sapiens, UniProt O95180). Briefly: T-type channel blocking, FLIPR data (Table 6). To be noted: for CAv3.2 IC50 Ratio closed/inact.: CAv3.2, ratio closed/inact.
Text: as §1

In experiment [4] the target is CAv1.2 (Homo sapiens, UniProt Q13936). Briefly: L-type (CAv1.2) channel blocking, FLIPR data (Table 6).
[5] abbreviates: closed state, read-out: CAv2.2 IC50 Closed.
[6] abbreviates: inactivated state, read-out: CAv2.2 IC50 Inact.
Setting [7] is: CAv3.2, closed state, read-out: CAv3.2 IC50 Closed.
The mark [8] stands for this setting: CAv3.2, inactivated state, read-out: CAv3.2 IC50 Inact.
[9] abbreviates: closed state, read-out: CAv1.2 IC50 Closed.
Setting [10] is: inactivated state, read-out: CAv1.2 IC50 Inact.

SMILES strings stand for the structures. Read-outs that look alike come from different tables or passages of the source.

T-type calcium channel (Homo sapiens, UniProt O95180), sequence (O95180 whole entry): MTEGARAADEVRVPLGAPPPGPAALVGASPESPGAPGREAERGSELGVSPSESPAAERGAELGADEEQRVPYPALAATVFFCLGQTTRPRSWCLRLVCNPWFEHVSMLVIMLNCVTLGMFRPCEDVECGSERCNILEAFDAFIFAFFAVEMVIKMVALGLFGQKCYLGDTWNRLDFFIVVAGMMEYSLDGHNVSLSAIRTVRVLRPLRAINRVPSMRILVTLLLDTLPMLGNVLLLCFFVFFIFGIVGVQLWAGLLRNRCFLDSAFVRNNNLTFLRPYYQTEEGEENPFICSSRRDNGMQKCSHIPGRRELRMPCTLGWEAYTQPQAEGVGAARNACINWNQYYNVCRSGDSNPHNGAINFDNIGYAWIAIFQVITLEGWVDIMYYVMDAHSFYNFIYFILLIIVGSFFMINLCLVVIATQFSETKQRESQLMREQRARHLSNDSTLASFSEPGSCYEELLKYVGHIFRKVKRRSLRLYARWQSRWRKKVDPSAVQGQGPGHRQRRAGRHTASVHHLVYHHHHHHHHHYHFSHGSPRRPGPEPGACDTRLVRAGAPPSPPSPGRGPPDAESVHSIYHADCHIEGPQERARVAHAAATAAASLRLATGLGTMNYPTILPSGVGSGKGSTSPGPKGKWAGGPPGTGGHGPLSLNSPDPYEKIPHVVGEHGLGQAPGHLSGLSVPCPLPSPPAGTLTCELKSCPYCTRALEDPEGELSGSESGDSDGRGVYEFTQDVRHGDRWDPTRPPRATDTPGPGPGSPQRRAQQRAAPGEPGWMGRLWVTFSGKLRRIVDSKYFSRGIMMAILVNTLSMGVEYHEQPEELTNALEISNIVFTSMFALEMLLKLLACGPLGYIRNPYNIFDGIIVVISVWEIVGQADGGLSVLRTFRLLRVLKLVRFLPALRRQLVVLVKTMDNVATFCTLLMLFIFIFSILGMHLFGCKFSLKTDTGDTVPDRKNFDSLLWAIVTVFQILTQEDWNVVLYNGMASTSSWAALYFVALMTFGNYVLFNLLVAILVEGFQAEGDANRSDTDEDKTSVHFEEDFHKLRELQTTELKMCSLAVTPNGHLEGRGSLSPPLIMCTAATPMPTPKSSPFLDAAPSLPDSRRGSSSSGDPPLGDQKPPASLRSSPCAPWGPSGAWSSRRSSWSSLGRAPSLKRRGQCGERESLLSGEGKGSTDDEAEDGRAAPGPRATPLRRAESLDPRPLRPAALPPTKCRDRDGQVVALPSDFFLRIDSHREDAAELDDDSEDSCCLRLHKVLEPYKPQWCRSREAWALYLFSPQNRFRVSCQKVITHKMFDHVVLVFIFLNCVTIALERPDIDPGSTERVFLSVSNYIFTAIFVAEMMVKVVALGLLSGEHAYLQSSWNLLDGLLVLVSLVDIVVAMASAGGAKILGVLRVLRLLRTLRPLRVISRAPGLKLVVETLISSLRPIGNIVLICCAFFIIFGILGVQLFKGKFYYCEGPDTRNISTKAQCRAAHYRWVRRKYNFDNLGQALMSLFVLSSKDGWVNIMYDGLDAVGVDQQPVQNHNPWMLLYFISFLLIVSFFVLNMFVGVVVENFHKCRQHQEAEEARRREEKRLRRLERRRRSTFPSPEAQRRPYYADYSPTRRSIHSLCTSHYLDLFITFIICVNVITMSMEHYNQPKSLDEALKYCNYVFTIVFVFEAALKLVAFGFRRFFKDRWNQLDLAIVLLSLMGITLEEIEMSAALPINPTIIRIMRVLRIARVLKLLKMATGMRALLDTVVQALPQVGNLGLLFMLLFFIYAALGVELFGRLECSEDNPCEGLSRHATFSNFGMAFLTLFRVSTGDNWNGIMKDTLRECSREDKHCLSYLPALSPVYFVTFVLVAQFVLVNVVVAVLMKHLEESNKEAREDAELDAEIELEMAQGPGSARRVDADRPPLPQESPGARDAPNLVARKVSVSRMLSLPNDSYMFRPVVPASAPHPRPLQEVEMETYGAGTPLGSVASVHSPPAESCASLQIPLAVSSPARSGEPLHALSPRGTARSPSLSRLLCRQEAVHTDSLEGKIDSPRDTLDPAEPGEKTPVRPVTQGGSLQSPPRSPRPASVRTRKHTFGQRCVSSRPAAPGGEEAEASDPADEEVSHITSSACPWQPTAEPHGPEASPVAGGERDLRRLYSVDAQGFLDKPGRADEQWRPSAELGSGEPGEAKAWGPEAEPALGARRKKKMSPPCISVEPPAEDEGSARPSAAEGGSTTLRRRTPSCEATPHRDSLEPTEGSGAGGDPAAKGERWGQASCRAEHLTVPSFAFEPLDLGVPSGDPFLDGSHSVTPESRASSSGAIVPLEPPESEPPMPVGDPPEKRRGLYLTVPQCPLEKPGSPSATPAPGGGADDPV
T-type calcium channel (Homo sapiens, UniProt O43497), sequence (O43497 whole entry): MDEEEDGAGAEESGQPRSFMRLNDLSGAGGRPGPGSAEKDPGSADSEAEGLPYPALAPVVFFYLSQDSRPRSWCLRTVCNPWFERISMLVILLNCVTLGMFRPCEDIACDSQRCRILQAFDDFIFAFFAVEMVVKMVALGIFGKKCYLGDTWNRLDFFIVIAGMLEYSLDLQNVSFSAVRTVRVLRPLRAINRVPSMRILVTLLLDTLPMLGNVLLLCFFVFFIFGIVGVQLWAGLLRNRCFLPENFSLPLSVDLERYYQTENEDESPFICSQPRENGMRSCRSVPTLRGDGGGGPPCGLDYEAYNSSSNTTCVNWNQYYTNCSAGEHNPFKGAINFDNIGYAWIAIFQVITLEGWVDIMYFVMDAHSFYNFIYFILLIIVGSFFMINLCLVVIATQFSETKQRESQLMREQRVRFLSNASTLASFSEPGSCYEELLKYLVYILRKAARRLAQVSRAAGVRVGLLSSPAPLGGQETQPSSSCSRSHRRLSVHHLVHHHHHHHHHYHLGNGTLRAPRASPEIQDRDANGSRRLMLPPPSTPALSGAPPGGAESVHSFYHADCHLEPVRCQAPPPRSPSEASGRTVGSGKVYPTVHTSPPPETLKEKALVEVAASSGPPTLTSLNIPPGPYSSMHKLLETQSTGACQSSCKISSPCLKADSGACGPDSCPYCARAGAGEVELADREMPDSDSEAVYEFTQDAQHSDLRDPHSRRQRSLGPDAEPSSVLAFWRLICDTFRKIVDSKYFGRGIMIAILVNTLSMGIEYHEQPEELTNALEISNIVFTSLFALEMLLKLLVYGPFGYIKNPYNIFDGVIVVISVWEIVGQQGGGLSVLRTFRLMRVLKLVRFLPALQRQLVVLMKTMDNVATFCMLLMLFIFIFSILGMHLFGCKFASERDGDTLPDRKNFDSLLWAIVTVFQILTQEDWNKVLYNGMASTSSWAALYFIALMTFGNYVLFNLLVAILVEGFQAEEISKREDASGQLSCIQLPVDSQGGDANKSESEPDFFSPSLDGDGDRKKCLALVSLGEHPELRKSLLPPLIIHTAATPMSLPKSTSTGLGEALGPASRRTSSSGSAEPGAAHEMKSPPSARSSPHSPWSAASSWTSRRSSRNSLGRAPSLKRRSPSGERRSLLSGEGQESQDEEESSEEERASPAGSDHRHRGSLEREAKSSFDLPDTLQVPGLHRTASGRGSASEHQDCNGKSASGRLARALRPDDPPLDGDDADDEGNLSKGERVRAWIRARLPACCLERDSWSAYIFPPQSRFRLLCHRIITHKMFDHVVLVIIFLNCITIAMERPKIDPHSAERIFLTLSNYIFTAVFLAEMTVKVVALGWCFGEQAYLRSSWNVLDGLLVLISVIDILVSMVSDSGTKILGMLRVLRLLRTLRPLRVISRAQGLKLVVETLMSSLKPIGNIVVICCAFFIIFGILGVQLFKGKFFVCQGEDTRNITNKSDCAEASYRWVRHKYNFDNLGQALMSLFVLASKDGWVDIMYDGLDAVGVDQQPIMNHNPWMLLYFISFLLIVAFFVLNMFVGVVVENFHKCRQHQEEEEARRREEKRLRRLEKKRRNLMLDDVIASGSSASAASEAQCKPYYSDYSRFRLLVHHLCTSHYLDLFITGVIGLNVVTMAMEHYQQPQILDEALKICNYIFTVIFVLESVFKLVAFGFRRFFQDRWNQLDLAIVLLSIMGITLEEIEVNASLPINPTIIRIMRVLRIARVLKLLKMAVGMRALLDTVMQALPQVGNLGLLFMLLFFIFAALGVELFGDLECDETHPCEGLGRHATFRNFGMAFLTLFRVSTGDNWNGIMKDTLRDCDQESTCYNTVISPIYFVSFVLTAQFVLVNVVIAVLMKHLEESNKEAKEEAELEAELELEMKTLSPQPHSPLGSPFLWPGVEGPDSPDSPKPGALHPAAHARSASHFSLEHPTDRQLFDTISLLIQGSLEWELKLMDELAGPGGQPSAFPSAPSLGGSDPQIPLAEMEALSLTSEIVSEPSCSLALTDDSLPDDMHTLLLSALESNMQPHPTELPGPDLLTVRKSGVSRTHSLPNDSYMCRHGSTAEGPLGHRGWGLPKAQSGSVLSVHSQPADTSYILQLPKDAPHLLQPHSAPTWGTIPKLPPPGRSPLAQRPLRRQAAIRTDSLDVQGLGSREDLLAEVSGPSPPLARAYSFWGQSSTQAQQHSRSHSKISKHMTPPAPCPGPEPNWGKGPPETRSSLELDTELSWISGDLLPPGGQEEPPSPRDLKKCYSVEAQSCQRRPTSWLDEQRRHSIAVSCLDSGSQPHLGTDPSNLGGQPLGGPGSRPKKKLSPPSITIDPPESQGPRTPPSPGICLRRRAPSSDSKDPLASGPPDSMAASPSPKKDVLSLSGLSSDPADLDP

Broadly, the IC50 is the concentration that gives 50% inhibition. `Cn1nc(C(F)(F)F)cc1C(=O)N1CC(CS(=O)(=O)c2cc(F)cc(C(F)(F)F)c2)C1` [Compound 748]: the IC50 in experiment [1] (setting [5]) was 10000 nM; in experiment [1] (setting [6]), 5240 nM; in experiment [2] it was at least 10 µM; in experiment [3] (setting [7]) it was at least 10000 nM; in experiment [3] (setting [8]), 8420 nM; in experiment [4] (setting [9]), at least 10 µM. In experiment [4] (setting [10]), the IC50 is at least 10 µM. Further, in experiment [1], the “CAv2.2 IC50 Ratio closed/inact.” value is given as 1.9. Moreover, the “CAv3.2 IC50 Ratio closed/inact.” value in experiment [3] came to 1.2.
Take `CC(C)([C@H]1C[C@H](CNc2ccc(F)c(Cl)c2)C1)S(=O)(=O)c1cccc(C(F)(F)F)c1` [Compound 750]: the 50% inhibitory concentration (IC50) in experiment [1] (setting [5]) was 2330 nM; in experiment [1] (setting [6]), 170 nM; in experiment [2], 3.37 µM; in experiment [3] (setting [7]), at least 10000 nM; in experiment [3] (setting [8]), 740 nM; in experiment [4] (setting [9]), 3.42 µM. The IC50 in experiment [4] (setting [10]) amounted to 0.99 µM. Further, the “CAv2.2 IC50 Ratio closed/inact.” value in experiment [1] amounted to 13.7. The “CAv3.2 IC50 Ratio closed/inact.” value in experiment [3] amounted to 13.5. In experiment [4], the “CAv1.2 IC50 Ratio closed/inact.” value turned out to be 3.5.
Take `CC(C)([C@H]1C[C@H](CNc2ccc(Cl)c(F)c2)C1)S(=O)(=O)c1cccc(C(F)(F)F)c1` [Compound 751]: the IC50 in experiment [1] (setting [5]) is 3930 nM; in experiment [1] (setting [6]), 300 nM; in experiment [2], 4.53 µM; in experiment [3] (setting [7]), at least 10000 nM; in experiment [3] (setting [8]), 1480 nM; in experiment [4] (setting [9]), 4.72 µM. Further, in experiment [4] (setting [10]), the IC50 worked out at 1.35 µM. Moreover, in experiment [1], the “CAv2.2 IC50 Ratio closed/inact.” value worked out at 13.1. The “CAv3.2 IC50 Ratio closed/inact.” value in experiment [3] is 6.8. Further, the “CAv1.2 IC50 Ratio closed/inact.” value in experiment [4] was found to be 3.5.
With `CC(C)([C@H]1C[C@H](CNc2cc(C(F)(F)F)n[nH]2)C1)S(=O)(=O)c1cccc(C(F)(F)F)c1` [Compound 752], the IC50 in experiment [1] (setting [5]) amounted to 3700 nM; in experiment [1] (setting [6]), 280 nM; in experiment [2], 4.91 µM; in experiment [3] (setting [7]) it was 5860 nM; in experiment [3] (setting [8]) it was 1880 nM; in experiment [4] (setting [9]) it was 8.6 µM. For the same compound, the concentration for half-maximal inhibition (IC50) in experiment [4] (setting [10]) was 2.81 µM. Besides, the “CAv2.2 IC50 Ratio closed/inact.” value in experiment [1] stood at 13.2. In experiment [3], the “CAv3.2 IC50 Ratio closed/inact.” value was 3.1. Moreover, the “CAv1.2 IC50 Ratio closed/inact.” value in experiment [4] is reported as 3.1.
As to `CC(C)([C@H]1C[C@@H](CNc2ccc(F)c(Cl)c2)C1)S(=O)(=O)c1cccc(C(F)(F)F)c1` [Compound 753], the IC50 in experiment [1] (setting [5]) was 3800 nM; in experiment [1] (setting [6]), 330 nM; in experiment [2], 4.45 µM; in experiment [3] (setting [7]) it was at least 10000 nM; in experiment [3] (setting [8]), 1630 nM; in experiment [4] (setting [9]), 7.42 µM. The half-maximal inhibitory concentration (IC50) in experiment [4] (setting [10]) turned out to be 1.51 µM. Besides, the “CAv2.2 IC50 Ratio closed/inact.” value in experiment [1] is reported as 11.5. Moreover, the “CAv3.2 IC50 Ratio closed/inact.” value in experiment [3] is reported as 6.1. For the same compound, the “CAv1.2 IC50 Ratio closed/inact.” value in experiment [4] is recorded as 4.9.
On to `CC(C)([C@H]1C[C@@H](CNc2cc(C(F)(F)F)n[nH]2)C1)S(=O)(=O)c1cccc(C(F)(F)F)c1` [Compound 755], for which the concentration for half-maximal inhibition (IC50) was 4480 nM in experiment [1] (setting [5]); 750 nM in experiment [1] (setting [6]); 5.25 µM in experiment [2]; at least 10000 nM in experiment [3] (setting [7]); 2490 nM in experiment [3] (setting [8]); 8.17 µM in experiment [4] (setting [9]). Besides, the half-maximal inhibitory concentration (IC50) in experiment [4] (setting [10]) was 3.88 µM. Further, the “CAv2.2 IC50 Ratio closed/inact.” value in experiment [1] stood at 6. Moreover, the “CAv3.2 IC50 Ratio closed/inact.” value in experiment [3] turned out to be 4. Moreover, in experiment [4], the “CAv1.2 IC50 Ratio closed/inact.” value turned out to be 2.1.
For `CC(C)([C@H]1C[C@@H](C(=O)Nc2ccc(C(F)(F)F)cc2)C1)S(=O)(=O)c1cccc(C(F)(F)F)c1` [Compound 756], the 50% inhibitory concentration (IC50) in experiment [1] (setting [5]) was found to be 3900 nM; in experiment [1] (setting [6]) it was 390 nM; in experiment [2], 1.59 µM; in experiment [3] (setting [7]), 3520 nM; in experiment [3] (setting [8]) it was 1200 nM; in experiment [4] (setting [9]), 4.19 µM. Moreover, the IC50 in experiment [4] (setting [10]) stood at 1.37 µM. In addition, the “CAv2.2 IC50 Ratio closed/inact.” value in experiment [1] was 10. The “CAv3.2 IC50 Ratio closed/inact.” value in experiment [3] amounted to 2.9. Also, the “CAv1.2 IC50 Ratio closed/inact.” value in experiment [4] is given as 3.1.
As for `CC(C)([C@H]1C[C@@H](C(=O)Nc2cc(C(F)(F)F)n[nH]2)C1)S(=O)(=O)c1cccc(C(F)(F)F)c1` [Compound 757], the IC50 was 5790 nM in experiment [1] (setting [5]); 550 nM in experiment [1] (setting [6]); 2.22 µM in experiment [2]; 6060 nM in experiment [3] (setting [7]); 2290 nM in experiment [3] (setting [8]); at least 10 µM in experiment [4] (setting [9]). In addition, the IC50 in experiment [4] (setting [10]) was found to be 5.39 µM. For the same compound, the “CAv2.2 IC50 Ratio closed/inact.” value in experiment [1] is 10.5. The “CAv3.2 IC50 Ratio closed/inact.” value in experiment [3] is given as 2.6. Besides, in experiment [4], the “CAv1.2 IC50 Ratio closed/inact.” value turned out to be 1.9.
As for `CC(C)([C@H]1C[C@@H](C(=O)Nc2ccc(C(F)(F)F)cn2)C1)S(=O)(=O)c1cccc(C(F)(F)F)c1` [Compound 758], the concentration for half-maximal inhibition (IC50) in experiment [1] (setting [5]) stood at 2540 nM; in experiment [1] (setting [6]), 390 nM; in experiment [2] it was 2.13 µM; in experiment [3] (setting [7]), 4060 nM; in experiment [3] (setting [8]), 1970 nM; in experiment [4] (setting [9]), 3.56 µM. Further, the IC50 in experiment [4] (setting [10]) was 1.88 µM. In addition, in experiment [1], the “CAv2.2 IC50 Ratio closed/inact.” value is 6.5. In experiment [3], the “CAv3.2 IC50 Ratio closed/inact.” value was 2.1. For the same compound, the “CAv1.2 IC50 Ratio closed/inact.” value in experiment [4] worked out at 1.9.
With `CC(C)([C@H]1C[C@@H](C(=O)Nc2ccc(C(F)(F)F)nc2)C1)S(=O)(=O)c1cccc(C(F)(F)F)c1` [Compound 759], the IC50 in experiment [1] (setting [5]) worked out at 3670 nM; in experiment [1] (setting [6]), 480 nM; in experiment [2], 2.27 µM; in experiment [3] (setting [7]) it was 3550 nM; in experiment [3] (setting [8]), 2070 nM; in experiment [4] (setting [9]), 5.1 µM. For the same compound, in experiment [4] (setting [10]), the IC50 was 2.18 µM. Besides, the “CAv2.2 IC50 Ratio closed/inact.” value in experiment [1] was 7.6. The “CAv3.2 IC50 Ratio closed/inact.” value in experiment [3] came out at 1.7. Also, the “CAv1.2 IC50 Ratio closed/inact.” value in experiment [4] was 2.3.
Regarding `CC(C)([C@H]1C[C@H](C(=O)Nc2ccc(C(F)(F)F)nc2)C1)S(=O)(=O)c1cccc(C(F)(F)F)c1` [Compound 760], the IC50 in experiment [1] (setting [5]) was 2870 nM; in experiment [1] (setting [6]) it was 190 nM; in experiment [2], 2.8 µM; in experiment [3] (setting [7]), 4620 nM; in experiment [3] (setting [8]) it was 730 nM; in experiment [4] (setting [9]), at least 10 µM. In addition, in experiment [4] (setting [10]), the IC50 turned out to be 3.55 µM. The “CAv2.2 IC50 Ratio closed/inact.” value in experiment [1] is recorded as 15.1. For the same compound, the “CAv3.2 IC50 Ratio closed/inact.” value in experiment [3] was found to be 6.3. Also, the “CAv1.2 IC50 Ratio closed/inact.” value in experiment [4] amounted to 2.8.
For the compound `CC(C)([C@H]1C[C@H](C(=O)Nc2ccc(Cl)cn2)C1)S(=O)(=O)c1cccc(C(F)(F)F)c1` [Compound 761], the half-inhibitory concentration (IC50) in experiment [1] (setting [5]) was 1600 nM; in experiment [1] (setting [6]), 150 nM; in experiment [2], 4.19 µM; in experiment [3] (setting [7]), at least 10000 nM; in experiment [3] (setting [8]), 1710 nM; in experiment [4] (setting [9]), 8.54 µM. In experiment [4] (setting [10]), the half-maximal inhibitory concentration (IC50) stood at 4.61 µM. Further, the “CAv2.2 IC50 Ratio closed/inact.” value in experiment [1] was determined as 10.7. In experiment [3], the “CAv3.2 IC50 Ratio closed/inact.” value was determined as 5.8. In addition, the “CAv1.2 IC50 Ratio closed/inact.” value in experiment [4] stood at 1.9.
For `CC(C)([C@H]1C[C@H](C(=O)Nc2cc(C(F)(F)F)n[nH]2)C1)S(=O)(=O)c1cccc(C(F)(F)F)c1` [Compound 762], the half-maximal inhibitory concentration (IC50) in experiment [1] (setting [5]) was 6260 nM; in experiment [1] (setting [6]) it was 390 nM; in experiment [2], 2.63 µM; in experiment [3] (setting [7]) it was at least 10000 nM; in experiment [3] (setting [8]), 1840 nM; in experiment [4] (setting [9]), at least 10 µM. Further, the half-maximal inhibitory concentration (IC50) in experiment [4] (setting [10]) was 7.23 µM. For the same compound, the “CAv2.2 IC50 Ratio closed/inact.” value in experiment [1] was determined as 16.1. Moreover, the “CAv3.2 IC50 Ratio closed/inact.” value in experiment [3] came out at 5.4. Further, in experiment [4], the “CAv1.2 IC50 Ratio closed/inact.” value is listed as 1.4.
